Measurements reported in US20070073039A1, “Peptides that inhibit viral infections” (priority 2005, published 2007).
Read-outs that look alike come from different tables or passages of the source.

Tests used:
HCV [1] = assay: Median effective concentration (EC50) by intracellular HCV RNA RT-QPCR; format: cell-based, Hepatitis C virus (JFH-1); conditions: FIG. 12B-C; Huh-7.5.1 cells, MOI 0.1; 3 days; read-out: EC50 of the L- and D-forms of peptide 1
Experimental: (§1) To determine the median effective concentration (EC50) of peptide #1, peptide stock solution (3.6 mM in DMSO) was serially 2-fold diluted in DMSO. An aliquot of peptide from each dilution was then diluted 1:100 in complete growth medium and mixed with equal volume of virus supernatant. The virus-peptide mixture was then used to infect Huh-7.5.1 cells (MOI=0.1). After adsorption for 4 hours at 37° C., the virus-peptide inoculum was removed. The cells were washed 2 times, overlaid with 120 μL fresh growth medium and incubated at 37° C. for 3 days. Cells were lysed and subjected to RNA analysis. The HCV RNA transcript level was measured by real time RT-QPCR and normalized to cellular GAPDH levels. The inhibition of HCV infection was calculated by comparing the intracellular HCV RNA transcript between the peptide treatment and solvent control.
as §1, with “(EC50) of the L- and D-form” for “(EC50)”, “serially diluted” for “serially”, “2-fold” for “2-fold diluted”

[2] = Serum stability of L- and D-type peptides (10% FBS, 37° C., antiviral readout); format: in vitro ADME
Excerpt: Peptides composed of L-amino acids are susceptible to proteolysis, which could shorten their half-life and, thus, their biological activity. To examine this possibility and to determine if specific peptide-viral protein interactions mediate antiviral activity, peptide 1 was synthesized using all D-amino acids, purified to >95% homogeneity, and its antiviral activity and serum stability were compared with a similarly pure preparation of the L-type version of peptide #1. Both L- and D-type peptides were diluted 1:100 in complete growth medium (10% FBS) and mixed with an equal volume of viral supernatant.
In addition, to compare the serum stability of the L- and D-type peptides, the diluted peptide was incubated at 37° C. for 1 hour, 2 hours and 4 hours before mixing with viral supernatant. The virus-peptide mixture was then used to infect Huh-7.5.1 cells (MOI=0.1). After adsorption for 4 hours at 37° C., the virus-peptide inoculum was removed. The cells were washed 2 times, overlaid with 120 μL fresh growth medium and incubated at 37° C. for 3 days. Cells were lysed and subjected to RNA analysis. The HCV RNA transcript level was measured by real time RT-QPCR and normalized to cellular GAPDH levels. […] Thus, in addition to low immunogenicity and possible oral bioavailability, peptides composed of D-amino acids have the potential therapeutic advantage of enhanced serum stability.

MTT cytotoxicity assay = format: cell-based; conditions: human, hepatocyte cell lines, read-out: LD50 (MTT cytotoxicity)
Experimental: Peptide cytotoxicity was measured by MTT cytotoxicity assay based on the protocol provided in the ATCC MTT assay kit (Cat #30-1010K). In brief, 5000-10,000 cells were seeded per well in a 96 well plate. Following overnight growth, 100 μL fresh medium plus 20 μL of 2-fold serially diluted peptide was added. Media without peptides was added to at least 3 wells as untreated controls. The cells were then incubated for 72 hours at 37° C., 5% CO2. After this incubation, 1/10 volume of MTT solution ([…] in PBS) was added to each well, and the cells were returned to the incubator. Two hours later, the medium was removed, 150 μL DMSO was added to dissolve the purple precipitate formazan, and the plate was shaken at 150 rpm for 10 minutes. Absorbance at 570 nm less background at 670 nm is a reliable measure of […]. Cytotoxicity (LD50) of individual peptides was defined as the peptide concentration that caused 50% cell death.

Dengue-2 [3] = assay: Dengue-2 infection of Vero cells, Intracellular FACS Assay; format: cell-based; conditions: 20 μM
Experimental: Intracellular FACS Assay: Vero cells were seeded for 24 h pre-infection in 6-well plates. Cells were exposed to Dengue-2 in the presence of increasing concentrations of peptide (or DMSO as control). Viruses and peptide were washed away 2 h post-infection. Cells were taken for intracellular staining 3 days post-infection. Cells were stained with appropriate isotype control, Dengue Env, Dengue capsid or tubulin antibodies. Cells were analyzed by FACS.

HCV [4] = assay: HCV focus reduction assay; format: cell-based, Hepatitis C virus (JFH-1)
Experimental: To identify peptides that display antiviral activity against HCV infection, the peptide library was screened by an HCV focus reduction assay. The peptides were constituted in 100% DMSO at a final concentration 10 mg/mL, and stored in −20° C. The peptide stock solution was diluted 1:200 to a final concentration approximately 20 μM in complete DMEM growth medium containing 50 focus forming units (ffu) of HCV. The virus-peptide mixture was transferred to Huh-7.5.1 cells at a density of 8000 cells per well in a 96-well plate. After adsorption for 4 hours at 37° C., the inoculum was removed. The cells were washed 2 times, overlaid with 120 μL fresh growth medium and incubated at 37° C. After 3 days of culture, the cells were fixed with paraformaldehyde and immunostained with antibody against HCV nonstructural protein NS5A. The numbers of HCV foci were counted under fluorescent microscopy and the result is expressed as percentage (%) of mock with no peptide treatment but containing solvent 0.5% DMSO.
To determine whether the antiviral activity of peptide 1 is dependent on its primary amino acid sequence, four derivative peptides from peptide 1 were synthesized to a purity >95%. The four derivatives having the same composition of amino acids included (1) the reversed the sequence of peptide 1 (also called retro-peptide); (2) scrambled hydrophobic amino acids; (3) scrambled hydrophilic amino acids; and (4) a derivative in which the aspartic acid residues (D) were replaced with proline residues (P). The antiviral activity of the peptides was examined by HCV focus reduction assay at three peptide concentrations: 18 μM, 6 μM and 2 μM, as described above.

HCV [5] = assay: Intracellular HCV RNA by real time RT-QPCR after infection of Huh-7.5.1 cells with and without peptide; format: cell-based, Hepatitis C virus (JFH-1)
Experimental: To accurately quantify the inhibitory effect of the selected peptides on HCV infection, intracellular HCV RNA was measured after infection by real time RT-QPCR with and without peptide treatment. The peptide stock solution was diluted 1:100 and mixed with equal volume of viral supernatant (propagated from day 18 virus preparation post transfection) to a final concentration approximately 20 μM. The virus with peptide or 0.5% DMSO solvent control was then used to infect Huh-7.5.1 cells at a multiplicity of infection (MOI) of 0.1. After an adsorption for 4 hours at 37° C., the inoculum was removed. The cells were washed 2 times, overlaid with 120 μL fresh growth medium and incubated at 37° C. At the indicated time points, total cellular RNA was isolated by the guanidine thiocyanate method. The HCV RNA transcript level was measured by real time RT-QPCR with the primers 5′—
normalized to cellular GAPDH levels.
To define the antiviral action of peptide #1 (SEQ ID NO:43), the antiviral activity of a series of N-terminal and C-terminal truncations of peptide 1 was analyzed using the focus reduction assay and by measuring the reduction in intracellular HCV RNA as described.

HCV [6] = assay: Binding/attachment/uptake of HCV RNA by Huh-7.5.1 cells; format: cell-based, Hepatitis C virus (JFH-1); conditions: 18 μM; 4 hours at 37° C.; cell-associated HCV RNA
Experimental: To define the mechanism of antiviral activity of peptide #1, its ability to prevent the binding/attachment/uptake by cells of viral RNA in an infectious inoculum cells was examined. Huh-7.5.1 cells were seeded at 8000 cells per well in a 96-well plate. Sixteen hours later, the cells were incubated with HCV at MOI=0.1 in the presence or absence of peptide at a concentration of 18 μM. After adsorption for 4 hours at 37° C., the virus-peptide inoculum was removed. The cells were washed 2 times, lysed and subjected to RNA analysis. The HCV RNA transcript level was measured by real time quantitative polymerase chain reaction (RT-QPCR) assay and normalized to cellular GAPDH levels. Inhibitory activity was quantified by comparing the amount of cell-associated HCV RNA in cells exposed to the virus-peptide inocula versus the virus-DMSO control.

[7] = Preliminary in vivo toxicity in mice
Experimental: As a preliminary measurement of the in vivo cytotoxicity of the peptides 1, 2 and 3 (see Table 4) a group of three mice (BALB/c mice, 7 weeks old, about 23 g) were each injected with 92 μg L-type peptide 1 ( ˜4 mg/kg) in 200 μL PBS (spun 14,000 rpm for 3 minutes before injection). In the control group, each of three mice was given 200 μL PBS containing 5% DMSO. The mice were monitored for acute toxicity during the first 3 hours after injection.
No change in appearance, activity or behavior was observed. The mice were then weighed on days 0, 3, 5, 7 and 10. Peptide-injected mice gained weight at the same rate as the controls.

Dengue-2 [8] = assay: Dengue-2 infection of Vero cells, Enzyme-linked Immunosorbent Assay; format: cell-based; conditions: for Inhibition of Dengue Infection, α-Capsid 9A7 / Inhibition of Dengue Infection, α-DEN ENV: Vero cells, 5 days
Experimental: Enzyme-linked Immunosorbent Assay. Vero cells (80,000 cells/well/ml) were seeded for 24 h pre-infection in 24-well plates. Cells were exposed to Dengue-2 (derived from Vero cells) in the presence of increasing concentration of peptide (or DMSO as control). Viruses and peptide were not removed (cells were not washed) throughout the incubation. Infection was analyzed after 5 days using ELISA that measured the amounts of Dengue-2 capsid released in the supernatant of infected Vero cells.

Dengue-2 [9] = assay: as above; format: cell-based; conditions: 1.25 μM, 5 days

CC[C@@H](C)[C@@H](NC(=O)[C@@H](CC(=O)O)NC(=O)[C@@H](CCCNC(=N)N)NC(=O)[C@@H](CC(C)C)NC(=O)[C@@H](Cc1c[nH]c2ccccc12)NC(=O)[C@H](N)CO)C(=O)N[C@H](Cc1c[nH]c2ccccc12)C(=O)N[C@H](CC(=O)O)C(=O)N[C@H](Cc1c[nH]c2ccccc12)C(=O)N[C@@H](C(=O)N[C@H](CS)C(=O)N[C@H](CCC(=O)O)C(=O)N[C@@H](C(=O)N[C@H](CC(C)C)C(=O)N[C@H](CO)C(=O)N[C@H](CC(=O)O)C(=O)N[C@H](Cc1ccccc1)C(=O)N[C@H](CCCCN)C(=O)O)C(C)C)[C@H](C)CC [D-2022 peptide]
EC50 (HCV [1]): ~1 µM
Time entirely stable in 10% FBS at 37° C. [2]: at least 4 hours
CC50 at 72 h (MTT cytotoxicity assay; with FBS): 36.8 µM
CC50 at 72 h (MTT cytotoxicity assay; without FBS): 3.7 µM
% of Dead cells PI (Dengue-2 [3]; propidium iodide staining, Vero cells 3 days post-infection): 3.83%

CTMLVCGDDLVVICESAG [Peptide 2]
Inhibition of HCV infection (HCV [4]; cell culture model of HCV infection): strongly inhibit HCV infection
Fold Inhibition (HCV [4]; inhibition of HCV infection, peptide approximately 20 μM, Huh-7.5.1 cells, 3 days): 100.0 fold
% of Mock (HCV [4]; number of HCV foci as % of mock (0.5% DMSO), peptide approximately 20 μM, Huh-7.5.1 cells, 3 days): 1.0%
Fold inhibition of HCV infection (HCV [4]; peptide library screen, approximately 20 μM): more than ten-fold
HCV RNA fold inhibition 24 h 25 μM (HCV [5]; 24 h, 25 μM, Huh-7.5.1 cells, MOI 0.1, normalized to GAPDH): 86 fold
HCV RNA fold inhibition 72 h 25 μM (HCV [5]; 72 h, 25 μM, Huh-7.5.1 cells, MOI 0.1, normalized to GAPDH): 40 fold
Blocking of viral binding/attachment/uptake (HCV [6]): significantly blocks viral binding/attachment/uptake
In vivo toxicity observation ([7]; 92 μg ( ˜4 mg/kg) in 200 μL PBS, acute toxicity first 3 hours, weight to day 10): Peptides 1, 2 and 3 are Nontoxic in C57BL/6 Mice
Weight(g) (d.0) ([7]; day 0, ˜4 mg/kg injected): 25.3 g
Weight(g) (d.3) ([7]; day 3): 25.6 g
Weight(g) (d.5) ([7]; day 5): 25.9 g
Weight(g) (d.7) ([7]; day 7): 25.9 g
Weight(g) (d.10) ([7]; day 10): 25.6 g

SWLRDIWDWICEVL [^C-14mer]
Focus Reduction (72 h) (HCV [4]; 72 h, working concentration 18.4-27.5 μM per peptide, Mock 51): 0
Fold Inhibition on HCV RNA (24 h) (HCV [5]; 24 h, working concentration 18.4-27.5 μM per peptide): 20274.7 fold
Fold Inhibition on HCV RNA (72 h) (HCV [5]; 72 h, working concentration 18.4-27.5 μM per peptide): 237172.4 fold
Inhibition of Dengue Infection, α-Capsid 9A7 (Dengue-2 [8]; 1.25 μM): 11.4%
Inhibition of Dengue Infection, α-Capsid 9A7 (Dengue-2 [8]; 5 μM): 22.7%
Inhibition of Dengue Infection, α-DEN ENV (Dengue-2 [8]; 5 μM): 29.65%
Inhibition of Dengue Infection, α-Capsid 9A7 (Dengue-2 [8]; 20 μM): 98.3%
Inhibition of Dengue Infection, α-DEN ENV (Dengue-2 [8]; 20 μM): 97.8%
Inhibition of Dengue viral infection as detected by ELISA (Dengue-2 [8]; FIG. 17, 20 μM): ~100%
Inhibition of Dengue viral infection as detected by FACS (Dengue-2 [3]; FIG. 18): ~100%
Inhibition of Dengue Infection, α-DEN ENV (Dengue-2 [9]): 0%
